For the assay, the target named is T1, small-conductance Ca2+-activated K+ channels (SK channels, subtype 2) (Homo sapiens, UniProt Q9H2S1).
T1 construct: expressed in transfected cells; host or cells: HEK293
Put plainly: whole-cell patch-clamp of ionic current through SK2 channels in HEK293 cells (SC100). The class given is cell-based. The settings on record: concentration that increases the basal current by 100%; HEK293 cells expressing SK2 channels. The method, then:
The biological activity was determined as follows. The ionic current through small-conductance Ca^2+-activated K^+ channels (SK channels, subtype 2) was measured using the whole-cell configuration of the patch-clamp technique in a patch-clamp set-up using HEK293 tissue culture cells expressing SK2 channels as described in Hougaard et al., British Journal of Pharmacology 151, 655-665, May 8, 2007, the entire teachings of which are incorporated herein by reference. In one aspect, a compound is defined to be an SK PAM if the compound increases current in this assay, for example, if the SC100 value of the compound is less than or equal to 10 μM as determined by this assay. The SC100 value is defined to be the concentration of compound that increases the basal current by 100%.
A general note: In patch-clamp work, channel activity is measured electrically.

For `Cc1cc(C)n(-c2nc(NC3CCC(F)(F)CC3)cc(-n3cccn3)n2)n1` [Compound 117, N-(4,4-difluorocyclohexyl)-2-(3,5-dimethyl-1H-pyrazol-1-yl)-6-(1H-pyrazol-1-yl)pyrimidin-4-amine], the SC100 result was “++ (++ means 200 nM-1000 nM)”.

Regarding `Cc1cc(C)n(-c2nc3c(c(NC4CCC(F)(F)CC4)n2)CCN(CCO)C3)n1` [Compound 118, 2-(4-((4,4-difluorocyclohexyl)amino)-2-(3,5-dimethyl-1H-pyrazol-1-yl)-5,8-dihydropyrido[3,4-d]pyrimidin-7(6H)-yl)ethan-1-ol], the SC100 entry is “+ (+ means >1 uM)”.

As to `Cc1cc(-n2ccc(C)n2)nc(NC2CCC(F)(F)CC2)n1` [Compound 120, N-(4,4-difluorocyclohexyl)-4-methyl-6-(3-methyl-1H-pyrazol-1-yl)pyrimidin-2-amine], the SC100 result was “++ (++ means 200 nM-1000 nM)”.

In the case of `Cc1cc(C)n(-c2nc3c(c(NC4CCC(F)(F)CC4)n2)CCN(CC(N)=O)C3)n1` [Compound 121, 2-(4-((4,4-difluorocyclohexyl)amino)-2-(3,5-dimethyl-1H-pyrazol-1-yl)-5,8-dihydropyrido[3,4-d]pyrimidin-7(6H)-yl)acetamide], the SC100 result is given as “+ (+ means >1 uM)”.

On to `Cc1cc(C)n(-c2nc3c(c(NC4CCC(F)(F)CC4)n2)CCN(CC#N)C3)n1` [Compound 122, 2-(4-((4,4-difluorocyclohexyl)amino)-2-(3,5-dimethyl-1H-pyrazol-1-yl)-5,8-dihydropyrido [3,4-d]pyrimidin-7(6H)-yl)acetonitrile], for which the SC100 result is listed as “+ (+ means >1 uM)”.

Turning to `Cc1cc(C)n(-c2nc3c(c(NC4CCC(F)(F)CC4)n2)CCN(C(C)C)C3)n1` [Compound 123, N-(4,4-difluorocyclohexyl)-2-(3,5-dimethyl-1H-pyrazol-1-yl)-7-isopropyl-5,6,7,8-tetrahydropyrido[3,4-d]pyrimidin-4-amine], the SC100 result is given as “+ (+ means >1 uM)”.

Take `Cc1cc(C)n(-c2nc(NC3CCC(F)(F)CC3)cc(NC(C)c3nccs3)n2)n1` (stereo not shown) [Compound 124, N4-(4,4-difluorocyclohexyl)-2-(3,5-dimethyl-1H-pyrazol-1-yl)-N6-(1-(thiazol-2-yl)ethyl)pyrimidine-4,6-diamine]: the SC100 result is “+ (+ means >1 uM)”.

For the molecule `Cc1cc(C)n(-c2nc(NC3CCC(F)(F)CC3)cc(NC3CCN(C)C3=O)n2)n1` (stereo not shown) [Compound 125, 3-((6-((4,4-difluorocyclohexyl)amino)-2-(3,5-dimethyl-1H-pyrazol-1-yl)pyrimidin-4-yl)amino)-1-methylpyrrolidin-2-one], the SC100 result is reported as “+ (+ means >1 uM)”.

In the case of `Cc1cc(C)n(-c2cc(-n3cccn3)cc(NC3CCC(F)(F)CC3)n2)n1` [Compound 127, N-(4,4-difluorocyclohexyl)-6-(3,5-dimethyl-1H-pyrazol-1-yl)-4-(1H-pyrazol-1-yl)pyridin-2-amine], the SC100 result was “++ (++ means 200 nM-1000 nM)”.

For `Cc1cc(C)n(-c2nc(NC3CCC(F)(F)CC3)cc(N[C@@H]3CCN(C)C3=O)n2)n1` [Compound 129, (−)-3-((6-((4,4-difluorocyclohexyl)amino)-2-(3,5-dimethyl-1H-pyrazol-1-yl)pyrimidin-4-yl)amino)-1-methylpyrrolidin-2-one], the SC100 entry is on record as “+ (+ means >1 uM)”.

On to `CC(=O)N1CCN(c2cc(NC3CCC(F)(F)C3)nc(-n3nc(C)cc3C)n2)CC1` (stereo not shown) [Compound 130, 1-(4-(6-((3,3-difluorocyclopentyl)amino)-2-(3,5-dimethyl-1H-pyrazol-1-yl)pyrimidin-4-yl)piperazin-1-yl)ethan-1-one], for which the SC100 result is recorded as “+ (+ means >1 uM)”.

`Cc1cc(C)n(-c2nc(NC3CCC(F)(F)CC3)cc(C(N)=O)n2)n1` [Compound 131, 6-((4,4-difluorocyclohexyl)amino)-2-(3,5-dimethyl-1H-pyrazol-1-yl)pyrimidine-4-carboxamide]: the SC100 entry is given as “+ (+ means >1 uM)”.

For `CC(=O)N1CCN(c2cc(N(C)C3CCC(F)(F)CC3)nc(-n3nc(C)cc3C)n2)CC1` [Compound 132, 1-(4-(6-((4,4-difluorocyclohexyl)(methyl)amino)-2-(3,5-dimethyl-1H-pyrazol-1-yl)pyrimidin-4-yl)piperazin-1-yl)ethan-1-one], the SC100 entry is “++ (++ means 200 nM-1000 nM)”.

Consider `Cc1cc(C)n(-c2nc(NC3CCC(F)(F)CC3)cc(NC3CCCN(C)C3=O)n2)n1` (stereo not shown) [Compound 133, 3-((6-((4,4-difluorocyclohexyl)amino)-2-(3,5-dimethyl-1H-pyrazol-1-yl)pyrimidin-4-yl)amino)-1-methylpiperidin-2-one], for which the SC100 entry is “+ (+ means >1 uM)”.

As for `CC(=O)N1CCN(c2cc(NC3CCC(F)(F)CC3)nc(-n3nc(C)cc3C)c2)CC1` [Compound 134, 1-(4-(2-((4,4-difluorocyclohexyl)amino)-6-(3,5-dimethyl-1H-pyrazol-1-yl)pyridin-4-yl)piperazin-1-yl)ethan-1-one], the SC100 result is recorded as “++ (++ means 200 nM-1000 nM)”.

`Cc1cc(C)n(-c2nc(NC3CCC(F)(F)CC3)cc(C(C)O)n2)n1` (stereo not shown) [Compound 136]: the SC100 result is on record as “++ (++ means 200 nM-1000 nM)”.

With `Cc1cc(C)n(-c2nc(CO)cc(NC3CCC(F)(F)CC3)n2)n1` [Compound 137, (6-((4,4-difluorocyclohexyl)amino)-2-(3,5-dimethyl-1H-pyrazol-1-yl)pyrimidin-4-yl)methanol], the SC100 entry is “++ (++ means 200 nM-1000 nM)”.

Turning to `Cc1ccn(-c2nc(NC3CCC(F)(F)CC3)cc(N3CC(C)(O)C3)n2)n1` [Compound 140, 1-(6-((4,4-difluorocyclohexyl)amino)-2-(3-methyl-1H-pyrazol-1-yl)pyrimidin-4-yl)-3-methylazetidin-3-ol], the SC100 entry is reported as “+ (+ means >1 uM)”.

Take `Cc1ccn(-c2nc(NC3CCC(F)(F)CC3)cc(NC3COC3)n2)n1` [Compound 141, N4-(4,4-difluorocyclohexyl)-2-(3-methyl-1H-pyrazol-1-yl)-N6-(oxetan-3-yl)pyrimidine-4,6-diamine]: the SC100 entry is listed as “++ (++ means 200 nM-1000 nM)”.

Regarding `Cc1cc(C)n(-c2nc(NC3CCC(F)(F)CC3)cc(C(F)F)n2)n1` [Compound 142, N-(4,4-difluorocyclohexyl)-6-(difluoromethyl)-2-(3,5-dimethyl-1H-pyrazol-1-yl)pyrimidin-4-amine], the SC100 result is on record as “+ (+ means >1 uM)”.

Take `Cc1ccn(-c2nc(NC3CCC(F)(F)CC3)cc(N3CC(N(C)C)C3)n2)n1` [Compound 143, N-(4,4-difluorocyclohexyl)-6-(3-(dimethylamino)azetidin-1-yl)-2-(3-methyl-1H-pyrazol-1-yl)pyrimidin-4-amine]: the SC100 entry is “++ (++ means 200 nM-1000 nM)”.

Regarding `Cc1cc(NC2CCC(C(F)(F)F)CC2)nc(-n2ccc(C)n2)n1` (stereo not shown) [Compound 144, 6-methyl-2-(3-methyl-1H-pyrazol-1-yl)-N-(4-(trifluoromethyl)cyclohexyl)pyrimidin-4-amine], the SC100 entry is on record as “+ (+ means >1 uM)”.

Turning to `Cc1cc(C)n(-c2nc(NCc3ncco3)cc(NC3CCC(F)(F)CC3)n2)n1` [Compound 145, N4-(4,4-difluorocyclohexyl)-2-(3,5-dimethyl-1H-pyrazol-1-yl)-N6-(oxazol-2-ylmethyl)pyrimidine-4,6-diamine], the SC100 entry is “+ (+ means >1 uM)”.

`Cc1ccn(-c2nc(NCC(C)(C)C)cc(NC3CCC(F)(F)CC3)n2)n1` [Compound 146, N4-(4,4-difluorocyclohexyl)-2-(3-methyl-1H-pyrazol-1-yl)-N6-neopentylpyrimidine-4,6-diamine]: the SC100 result was “++ (++ means 200 nM-1000 nM)”.

On to `Cc1ccn(-c2nc(NC3CCC(F)(F)CC3)cc(NC3CC(F)(F)C3)n2)n1` [Compound 147, N4-(3,3-difluorocyclobutyl)-N6-(4,4-difluorocyclohexyl)-2-(3-methyl-1H-pyrazol-1-yl)pyrimidine-4,6-diamine], for which the SC100 entry is on record as “++ (++ means 200 nM-1000 nM)”.

For `Cc1cc(NC2CCC(F)(F)CC2)nc(-n2ccc(C)n2)n1` [Compound 148, N-(4,4-difluorocyclohexyl)-6-methyl-2-(3-methyl-1H-pyrazol-1-yl)pyrimidin-4-amine], the SC100 result was “++ (++ means 200 nM-1000 nM)”.

As to `CC(=O)N1CCN(c2cc(NC3CCC(C(F)(F)F)CC3)nc(-n3nc(C)cc3C)n2)CC1` (stereo not shown) [Compound 149, 1-(4-(2-(3,5-dimethyl-1H-pyrazol-1-yl)-6-((4-(trifluoromethyl)cyclohexyl)amino)pyrimidin-4-yl)piperazin-1-yl)ethan-1-one], the SC100 entry is on record as “++ (++ means 200 nM-1000 nM)”.

Turning to `Cc1cc(NC2CCC(F)(F)C2)nc(-n2ccc(C)n2)n1` (stereo not shown) [Compound 150, N-(3,3-difluorocyclopentyl)-6-methyl-2-(3-methyl-1H-pyrazol-1-yl)pyrimidin-4-amine], the SC100 entry is “+ (+ means >1 uM)”.

On to `Cc1ccn(-c2nc(NC3CCC(F)(F)CC3)cc(OC3CN(C(=O)OC(C)(C)C)C3)n2)n1` [Compound 151, tert-butyl 3-((6-((4,4-difluorocyclohexyl)amino)-2-(3-methyl-1H-pyrazol-1-yl)pyrimidin-4-yl)oxy)azetidine-1-carboxylate], for which the SC100 result was “++ (++ means 200 nM-1000 nM)”.

As for `Cc1cc(C)n(-c2nc(NC3CCC(F)(F)CC3)cc(C(C)(C)O)n2)n1` [Compound 152, 2-(6-((4,4-difluorocyclohexyl)amino)-2-(3,5-dimethyl-1H-pyrazol-1-yl)pyrimidin-4-yl)propan-2-ol], the SC100 result is “+ (+ means >1 uM)”.

For `Cc1ccn(-c2cc(S(C)(=O)=O)cc(NC3CCC(F)(F)CC3)n2)n1` [Compound 153, N-(4,4-difluorocyclohexyl)-6-(3-methyl-1H-pyrazol-1-yl)-4-(methylsulfonyl)pyridin-2-amine], the SC100 entry is given as “+ (+ means >1 uM)”.

For the origin of these results see US10774064B2 (Cadent Therapeutics, Inc., priority 2016, dated 2020).
